Columns and labels:
[1] = test system: SARS-CoV-2 isolate BetaCoV/France/IDF0372/2020 (SARS-CoV-2 Paris); assay: Viral quantification via plaque assay in Paris; type: cell-based; settings: Severe acute respiratory syndrome coronavirus 2
[2] = 10 μM
p38β = p38β (Homo sapiens (Human), UniProt Q15759); assay: Surface plasmon resonance (SPR) assay, Biacore T200
[3] = test system: SARS-CoV-2 isolate BetaCoV/France/IDF0372/2020 (SARS-CoV-2 Paris); assay: SARS-CoV-2 anti-viral assay Paris (viral genomes by RT-qPCR); type: cell-based; settings: Severe acute respiratory syndrome coronavirus 2; SARS-CoV-2 Paris isolate, 48 hours
[4] = 10 μM; remark: listed apart in the source
SARS-CoV-2 = assay: microbe, parasite or virus in culture; type: cell-based; settings: Severe acute respiratory syndrome coronavirus 2, read-out: IC50 for anti-SARS-CoVID-19 activity
[5] = 10 μM; remark: listed apart in the source
[6] = test system: SARS-CoV-2, isolate USA-WA1/2020 (SARS-CoV-2 New York); assay: SARS-CoV-2 anti-viral assay New York (N-protein staining); type: cell-based; settings: Severe acute respiratory syndrome coronavirus 2; SARS-CoV-2 New York isolate, 48 hours; read-out: Anti-Viral NY IC50

p38β, sequence (Q15759 whole entry): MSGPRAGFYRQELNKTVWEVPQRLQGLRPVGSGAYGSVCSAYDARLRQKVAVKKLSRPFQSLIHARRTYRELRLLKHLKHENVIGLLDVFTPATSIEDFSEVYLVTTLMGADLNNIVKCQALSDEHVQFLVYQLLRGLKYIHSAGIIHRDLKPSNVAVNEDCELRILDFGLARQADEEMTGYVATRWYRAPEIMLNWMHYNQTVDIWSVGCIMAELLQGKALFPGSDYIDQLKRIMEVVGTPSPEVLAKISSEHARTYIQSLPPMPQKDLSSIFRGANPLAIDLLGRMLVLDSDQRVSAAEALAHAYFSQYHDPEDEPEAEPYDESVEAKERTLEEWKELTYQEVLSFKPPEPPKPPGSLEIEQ

O=C(Nc1ccc(CN2CCCOCC2)cc1)c1ccc(Cl)cc1 [Compound 1, N-(4-((1,4-oxazepan-4-yl)methyl)phenyl)-4-chlorobenzamide]
IC50 [1]: 1800 nM | stable in rat plasma [2]: at least 4 hours | Kd (p38β): < 10 nM | IC50 [3]: 600 nM | stable in monkey plasma [4]: at least 4 hours | IC50 (SARS-CoV-2): < 10000 nM | stable in human plasma [5]: at least 4 hours | IC50 [6]: 700 nM

O=C(Nc1ccc(CN2CC3(COC3)C2)cc1)c1ccc(Cl)cc1 [Compound 2, N-(4-((2-oxa-6-azaspiro[3.3]heptan-6-yl)methyl)phenyl)-4-chlorobenzamide]
IC50 [3]: 7800 nM | IC50 (SARS-CoV-2): < 10000 nM | IC50 [6]: 1200 nM

O=C(Nc1ccc(CN2CCOCC2)cc1)c1cnc(Cl)nc1 [Compound 3, 2-chloro-N-(4-(morpholinomethyl)phenyl)pyrimidine-5-carboxamide]
IC50 [3]: 9400 nM | IC50 (SARS-CoV-2): < 10000 nM | IC50 [6]: 1200 nM

O=C(Nc1ccc(CN2CC3(CCOCC3)C2)cc1)c1ccc(Cl)cc1 [Compound 4, N-(4-((7-oxa-2-azaspiro[3.5]nonan-2-yl)methyl)phenyl)-4-chlorobenzamide]
IC50 [1]: 1400 nM | IC50 [3]: 2100 nM | IC50 (SARS-CoV-2): < 10000 nM | IC50 [6]: 700 nM

O=C(Nc1ccc(CN2CCC3(CCCO3)C2)cc1)c1ccc(Cl)cc1 (stereo not drawn) [Compound 6, N-(4-((1-oxa-7-azaspiro[4.4]nonan-7-yl)methyl)phenyl)-4-chlorobenzamide]
stable in rat plasma [2]: at least 4 hours | Kd (p38β): < 10 nM | IC50 [3]: 2900 nM | stable in monkey plasma [4]: at least 4 hours | IC50 (SARS-CoV-2): < 10000 nM | stable in human plasma [5]: at least 4 hours | IC50 [6]: 6400 nM

C[C@H]1CN(Cc2ccc(NC(=O)c3ccc(Cl)cc3)cc2)C[C@H](C)O1 [Compound 8, 4-chloro-N-(4-(((2S,6S)-2,6-dimethylmorpholino)methyl)phenyl)benzamide]
stable in rat plasma [2]: at least 4 hours | Kd (p38β): < 10 nM | stable in monkey plasma [4]: at least 4 hours | IC50 (SARS-CoV-2): < 10000 nM | stable in human plasma [5]: at least 4 hours

O=C(Nc1ccc(CN2C[C@@H]3COC[C@@H](C3)C2)cc1)c1ccc(Cl)cc1 [Compound 9, N-(4-(((1R,5S)-3-oxa-7-azabicyclo[3.3.1]nonan-7-yl)methyl)phenyl)-4-chlorobenzamide]
IC50 [3]: 3100 nM

O=C(Nc1ccc(CN2C[C@H]3COC[C@H]3C2)cc1)c1ccc(Cl)cc1 [Compound 10, 4-chloro-N-(4-(((3aR,6aS)-tetrahydro-1H-furo[3,4-c]pyrrol-5(3H)—1)methyl)phenyl)benzamide]
IC50 [1]: 2800 nM | stable in rat plasma [2]: at least 4 hours | IC50 [3]: 1300 nM | stable in monkey plasma [4]: at least 4 hours | stable in human plasma [5]: at least 4 hours | IC50 [6]: 200 nM

O=C(Nc1ccc(CN2CCC(O)CC2)cc1)c1ccc(Cl)cc1 [Compound 11, 4-chloro-N-(4-((4-hydroxypiperidin-1-yl)methyl)phenyl)benzamide]
IC50 [1]: 2100 nM | IC50 [3]: 1600 nM | IC50 (SARS-CoV-2): < 10000 nM | IC50 [6]: 200 nM

O=C(Nc1ccc(CN2CCC(O)C2)cc1)c1ccc(Cl)cc1 (stereo not drawn) [Compound 13, 4-chloro-N-(4-((3-hydroxypyrrolidin-1-yl)methyl)phenyl)benzamide]
IC50 [3]: 3400 nM | IC50 (SARS-CoV-2): < 10000 nM

CC(=O)N1CCN(Cc2ccc(NC(=O)c3ccc(Cl)cc3)cc2)CC1 [Compound 14, N-(4-((4-acetylpiperazin-1-yl)methyl)phenyl)-4-chlorobenzamide]
stable in rat plasma [2]: at least 4 hours | Kd (p38β): < 10 nM | stable in monkey plasma [4]: at least 4 hours | stable in human plasma [5]: at least 4 hours

CN1CCN(Cc2ccc(NC(=O)c3ccc(Cl)cc3)cc2)CC1 [Compound 17, 4-chloro-N-(4-((4-methylpiperazin-1-yl)methyl)phenyl)benzamide]
IC50 [1]: 2700 nM | IC50 [3]: 3600 nM | IC50 (SARS-CoV-2): < 10000 nM | IC50 [6]: 700 nM

— patent US11440918B2, “p38α mitogen-activated protein kinase inhibitors” (priority 2020, dated 2022)
